Results: US7863313B2, “Methods for the treatment of inflammatory diseases” (Cortical PTY LTD, priority 2003, dated 2011)
Marks after values point to notes of the source that are not given here.

Columns and labels:
[1] = test system: IL-1 induced COX-2 expression; assay: MIF-dependent IL-1 induced fibroblast cyclooxygenase-2 expression (flow cytometry); format: cell-based, human; conditions: for Mean % inhibition COX2 expression: S112 fibroblasts, IL-1 0.1 ng/ml, 6 h
From the text: The activity of the compounds of formula (I) were further studied in a bioassay utilising MIF-dependent activation of human dermal fibroblasts. Sampey et al have shown that induction of the expression of cyclooxygenase-2 (COX-2) by the cytokine interleukin 1 (IL-1) is dependent upon the presence of MIF, i.e. can be prevented using specific anti-MIF monoclonal antibody ^(17). IL-1-induced COX-2 expression is therefore a MIF-dependent event.
S112 human dermal fibroblasts were propagated in RPMI/10% foetal calf serum (FCS). Prior to experimentation, cells were seeded at 2×10^5 cells/ml in RPMI/0.1% BSA for 18 hours. […] After 6 hours, cells were collected and intracellular COX-2 protein determined by permeabilisation flow cytometry, as described by Sampey et al ^(18). Cells permeabilised with 0.2% saponin were sequentially labelled with a mouse anti-human COX-2 monoclonal antibody and with sheep-anti-mouse F(ab)2 fragment labelled with fluoroscein isothiocyanate. Cellular fluorescence was determined using a flow cytometer. At least 5000 events were counted for each reading, each of which was performed in duplicate, and the results expressed in mean fluorescence intensity (MFI) after subtraction of negative control-labelled cell fluorescence.
In Table 2 and FIG. 2, the effect of each concentration of 2-(2-hydroxyethoxy)-2-(4-hydroxy-3-methylphenyl)-1,3-dioxolane (Compound 1) was determined by subtracting the IL-1+ compound-treated cell MFI from the IL-1-treated cell MFI, and expressed as % inhibition.

[2] = test system: IL-1 induced COX-2 expression; assay: Combination of MIF-antagonist with glucocorticoid: IL-1 induced fibroblast COX-2 expression; format: cell-based, human
Description: S112 human dermal fibroblasts were propagated in RPMI/10% foetal calf serum (FCS). Prior to experimentation, cells were seeded at 2×10^5 cells/ml in RPMI/0.1% BSA for 18 hours. Cells were treated with compound at 1-100 μM and 30 minutes later with recombinant human IL-1 (0.1 ng/ml). After 6 hours, cells were collected and intracellular COX-2 protein determined by permeabilisation flow cytometry, as described by Sampey et al ^(18). Cells permeabilised with 0.2% saponin were sequentially labelled with a mouse anti-human COX-2 monoclonal antibody and with sheep-anti-mouse F(ab)2 fragment labelled with fluoroscein isothiocyanate. Cellular fluorescence was determined using a flow cytometer. At least 5000 events were counted for each reading, each of which was performed in duplicate, and the results expressed in mean fluorescence intensity (MFI) after subtraction of negative control-labelled cell fluorescence.
The above in vitro assay (Biological Example 2) for analysing the effect of MIF antagonists on IL-1 induced COX-2 expression was performed using 2-(2-hydroxyethoxy)-2-(4′-hydroxy-3′-methylphenyl)-1,3-dioxolane (Compound 1) (50 μM), dexamethasone (1 nM) or a combination of dexamethasone (1 nM) and Compound 1 (50 μM). COX-2 expression was expressed as the mean fluorescence intensity (MFI) as measured by flow cytometry, after deduction of the MFI for control-labelled samples, as described by Sampey et al. ^(18).

[3] = test system: S112 human dermal fibroblasts; assay: Cytotoxicity: apoptosis by annexin V and propidium iodide flow cytometry; format: cell-based; conditions: 50 μM versus control-treated cells; FIG. 7
From the text: A valuable characteristic of a therapeutic material is a lack of toxicity. The compounds of formula (I) may have low toxicity towards cells. To examine this in vitro, the ability of 2-(2-hydroxyethoxy)-2-(4-hydroxy-3-methylphenyl)-1,3-dioxolane (Compound 1) to induce apoptosis (“programmed cell death) was investigated. A lack of cytotoxicity would be evidenced by the finding of equivalent proportions of apoptotic and viable cells in control- and compound-treated cells.
To examine the cytotoxicity of compounds of formula (I), S112 human dermal fibroblasts were exposed to a therapeutic concentration (50 μM) of 2-(2-hydroxyethoxy)-2-(4-hydroxy-3-methylphenyl)-1,3-dioxolane (Compound 1) or vehicle (control) and analysed for apoptosis by flow cytometric analysis of annexin V and propidium iodide staining, as described by Leech et al. ^(19). Toxicity was assessed by analysis of apoptosis using flow cytometric detection of cell surface Annexin V binding and propidium iodide staining. At least 5000 events were analysed for each experiment. Cells positive for both Annexin V and propidium iodide were designated as apoptotic and cells negative for both Annexin V and propidium iodide were designated as viable. Results are expressed as the percentage (%) of cells with each of these labels.

[4] = test system: MIF-induced proliferation of S112 human fibroblasts; assay: MIF-induced human fibroblast proliferation (3H-thymidine incorporation); format: cell-based
Description: The activity of a compound of formula (I) was studied in a bioassay utilising MIF-induced proliferation of human dermal fibroblasts. […] S112 human dermal fibroblasts were propagated in RPMI/10% foetal calf serum (FCS). Prior to experimentation, cells were seeded at 10^5 cells/ml in RPMI/0.1% BSA for 18 hours. Cells were treated with recombinant human macrophage migration inhibitory factor (MIF) 50 ng/ml and/or a compound of the invention at a concentration of 1 nM. The compound was combined with MIF at time point −30 minutes, prior to adding to cell culture at time point zero. At time point zero, culture medium was replaced with RPMI/10% FCS and treatments administered. At time point 30 hours, cells were pulsed with 1 μCi ^3H-thymidine. At time point 48 hours, cells were harvested using a semi-automated cell harvester. The radioactivity incorporated into DNA was determined by liquid scintillation counting, with results expressed as ^3H-thymidine incorporation.

[5] = test system: antigen-specific T cell activation; assay: MIF-dependent antigen-specific T cell activation (splenocytes, 3H-thymidine); format: cell-based, mouse; conditions: 100 nM-10 μM; mBSA 10 μg/ml; spleen cells of immunized C57Bl/6 mice; P<0.05; FIG. 5
From the text: The activity of compounds of formula (I) was further studied in a bioassay utilising MIF-dependent activation of murine T cell activation. The activation of T lymphocytes in response to exposure to a recall antigen is known to be dependent on the presence of MIF, i.e. can be prevented using specific anti-MIF monoclonal antibody^(7). Antigen-induced T cell activation is therefore a MIF-dependent phenomenon.
Splenocytes were obtained by Hank's buffered saline flushing of spleens obtained from C57Bl/6 mice previously immunized with methylated bovine serum albumin (mBSA, Sigma Chemical Co., Castle Hill, Australia). Mice were immunized on day 0 with 200 μg mBSA emulsified in 0.2 ml of Freund's complete adjuvant (FCA) injected subcutaneously into the flank skin. On day 7, the mice received 100 μg mBSA/0.1 ml FCA by intradermal injection at the base of the tail. Spleens were removed on day 14 after first immunisation and a single cell suspension was prepared in DMEM containing 5% FCS and 0.05% 2-mercaptoethanol. […] The T cell proliferation response was determined by measuring the amount of [^3H] thymidine incorporation during the final 18 hr. The cells were harvested and radioactivity incorporation into the DNA was measured with a Wallac 1409 liquid scintillation counter (Pharmacia, Turku, Finland).

| SMILES | Mean % inhibition COX2 expression ([1]; 0.01 μM) [%] | Mean % inhibition COX2 expression ([1]; 0.1 μM) [%] | Mean % inhibition COX2 expression ([1]; 1 μM) | Mean % inhibition COX2 expression ([1]; 10 μM) | reduction in IL-1 induced COX-2 expression ([1]; 50 μM, P<0.01, FIG. 2) | Mean % inhibition COX2 expression ([1]; 50 μM) | dose dependence of reduction in COX-2 expression ([1]; Table 2 and FIG. 3) | Mean COX-2 expression (MFI) ([2]; IL-1 + dexamethasone 1 nM + Compound 1 50 μM, control 0.7400, IL-1 49.37) | enhancement of dexamethasone inhibition of IL-1-induced COX-2 expression ([2]; dexamethasone 1 nM + Compound 1 50 μM versus dexamethasone alone, P<0.05) | apoptotic cell numbers (Annexin V and propidium iodide positive) [3] | viable cell numbers (Annexin V and propidium iodide negative) [3] | Mean cpm (3H-thymidine incorporation) ([4]; S112 cells, MIF 50 ng/ml + compound 1 nM, untreated 3245, MIF alone 4415, n=9) | inhibition of MIF-induced S112 human fibroblast proliferation ([4]; compound 1 nM pre-incubated with MIF, P<0.05) | inhibition of IL-induced COX-2 expression, MFI ([1]; IL-1+cpd2 versus IL-1, P<0.05, FIG. 4) | reduction in antigen-specific T cell activation [5] |
| --- | --- | --- | --- | --- | --- | --- | --- | --- | --- | --- | --- | --- | --- | --- | --- |
| Cc1cc(C2(OCCO)OCCO2)ccc1O [Compound 1, 2-(2-hydroxyethoxy)-2-(4-hydroxy-3-methylphenyl)-1,3-dioxolane] | 10.5 | 13.2 | 15.6* % | 19.5* % | significant reduction | 31.4* % | dose-dependent reduction | 6.013* MFI | significantly greater inhibition | No significant increase | no significant decrease | 2994* cpm | significantly inhibited | – | – |
| OCCOC1(c2ccc(O)cc2)OCCO1 [Compound 2, 2-(2-hydroxyethoxy)-2-(4-hydroxyphenyl)-1,3-dioxolane] | – | – | – | – | – | – | – | – | – | – | – | – | – | Significant inhibition | significant dose-dependent reduction |
